Test results reported in PMC6152226, “Composition and Antioxidant, Antienzymatic and Antimicrobial Activities of Volatile Molecules from Spanish Salvia lavandulifolia (Vahl) Essential Oils” (Molecules : A Journal of Synthetic Chemistry and Natural …, 2017).
Values after ≈ are worked out from the molar mass of the structure shown. Where two headings read alike, the source gives them in different places.

Tests used:
[1] = tested on: Candida albicans ATCC 10231; assay: Broth microdilution MIC and MFC; type: cell-based
Procedure: (§1) The following test microorganisms used in this work were acquired from Sigma-Aldrich: Pseudomonas aeruginosa ATCC 9027, Escherichia coli ATCC 8739, Staphylococcus aureus ATCC 6538, and Candida albicans ATCC 10231. The stock cultures were preserved in TSB or YPD with 15% glycerol, for bacteria and yeast cells, respectively, at −80 °C. Isolated colonies from an 18- to 24-h agar plate were transferred to MHB for bacteria and RPMI-1640 for C. albicans.
(§2) MIC were determined using the broth microdilution method in 96-well microplates, according to the M07-A10 [69] standard for bacteria and the M27-A3 [70] for Candida. Briefly, two-fold dilutions of a 40 µL/mL SlEOs were prepared to obtain a final concentration range of 0.08–20 µL/mL with 0.5% Tween®80 and 2.5% DMSO. The antimicrobial activities of main compounds were also tested in the concentration range of 0.12–15 mM with 0.5% Tween®80 and 2.5% DMSO as solvent. The final strain concentration was 5 × 10^5 CFU/mL in MHB for the bacteria and 0.5−2.5 × 10^3 in RPMI-1640 for the yeast. These plates were incubated for 24 h for bacteria and 48 h for Candida, both at 35 ± 1 °C, under aerobic conditions on a plate shaker at 100 rpm. Streptomycin (0.06–8.00 µg/mL) and fluconazole (0.13–16 µg/mL) were used as reference antibacterial and antifungal compound, respectively. […] MIC is defined as the lowest concentration of EO or individual compound with no visible growth of microorganisms, at the end of the incubation period. […] All determinations were carried out in triplicate.

DPPH radical method = settings: individual compounds; maximum assay concentration 100 mM
Procedure: (§3) Five antioxidant methods were performed with SlEOs and their main individual compounds in triplicate. In the oxygen radical absorbance capacity (ORAC) assay, peroxyl radicals are produced by 2,2′-Azobis(2-methylpropionamidine) dihydrochloride (AAPH), which reacts with fluorescein giving a non-fluorescent compound [61]. The antioxidants are able to scavenge these peroxyl radicals. Trolox was used as the reference antioxidant. The 2,2-diphenyl-1-picrylhydrazyl (DPPH) and 2,2′-azino-bis(3-ethylbenzothiazoline-6-sulphonic acid) (ABTS) methods measure the bleaching produced by the reduction of the coloured DPPH and ABTS radicals. Trolox was used as the reference antioxidant. The RdP method measure the ability to reduce ferric ions, according to the method of Oyaizu. Ascorbic acid was the reference antioxidant used in this method. The ChP method measured the ability to chelate Fe^2+ ion, following the method of Miguel et al.. EDTA was used as reference antioxidant. The SlEOs were diluted in 100% ethanol in the DPPH, ABTS, RdP and ChP methods, whereas in the ORAC method, SlEOs were diluted in 15% ethanol to obtain a final concentration of 5% ethanol in the reaction medium. All measurements were made at the end-point of the reaction, except in the ORAC method (Figure S5).

[2] = tested on: Staphylococcus aureus ATCC 6538; assay: Broth microdilution MIC and MBC; type: cell-based
Procedure: as §1, §2

[3] = tested on: Escherichia coli ATCC 8739; assay: Broth microdilution MIC and MBC; type: cell-based
Procedure: as §1, §2

LOX = molecular target: T1, LOX (Glycine max, UniProt P08170); assay: LOX inhibition assay; type: biochemical, Glycine max (soybean); settings: for DI (%) of LOX: at 514.2 µg/mL, could not reach 50% inhibition
T1 construct: purchased Sigma-Aldrich
T1 sequence (P08170 whole entry): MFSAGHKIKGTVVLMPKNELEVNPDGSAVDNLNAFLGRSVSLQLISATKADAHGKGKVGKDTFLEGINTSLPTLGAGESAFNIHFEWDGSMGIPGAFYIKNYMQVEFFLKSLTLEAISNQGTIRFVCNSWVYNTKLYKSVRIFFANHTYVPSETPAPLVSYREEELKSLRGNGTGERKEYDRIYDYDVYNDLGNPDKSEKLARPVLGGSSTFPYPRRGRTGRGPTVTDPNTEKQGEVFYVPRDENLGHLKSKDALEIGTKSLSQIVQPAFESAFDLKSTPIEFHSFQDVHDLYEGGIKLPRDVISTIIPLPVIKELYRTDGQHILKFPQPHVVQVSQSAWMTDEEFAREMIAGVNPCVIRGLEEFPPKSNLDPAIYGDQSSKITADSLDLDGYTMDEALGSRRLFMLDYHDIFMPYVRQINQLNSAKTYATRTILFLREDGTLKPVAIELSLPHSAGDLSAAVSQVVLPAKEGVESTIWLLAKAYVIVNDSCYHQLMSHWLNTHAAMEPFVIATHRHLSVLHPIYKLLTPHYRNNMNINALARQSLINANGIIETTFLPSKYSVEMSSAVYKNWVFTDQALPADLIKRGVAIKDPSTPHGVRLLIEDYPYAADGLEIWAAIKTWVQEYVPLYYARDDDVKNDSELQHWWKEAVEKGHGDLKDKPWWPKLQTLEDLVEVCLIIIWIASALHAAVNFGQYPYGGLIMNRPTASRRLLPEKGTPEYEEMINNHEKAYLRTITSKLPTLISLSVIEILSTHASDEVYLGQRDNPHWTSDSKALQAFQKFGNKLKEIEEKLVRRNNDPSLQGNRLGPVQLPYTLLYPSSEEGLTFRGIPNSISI
Procedure: A LOX preparation from Glycine max (soybean) was acquired from Sigma-Aldrich. LOX inhibitory activity was determined as previously reported, based on the absorption at 234 nm of the hydroperoxyde conjugated dienes (ε = 25,000 M^−1 cm^−1), which are generated from the oxidation of linoleic acid in the presence of oxygen and LOX. This assay was carried out on a double beam Lambda 35 spectrophotometer (PerkinElmer, Madrid, Spain) with the UV-Winlab software, at 25 °C.
(§4) The DI in both antienzymatic assays were calculated using Equation (1):(1) DI (%)= ν0−νi/ν0 × 100 where v0 and v1 are the steady state rates without and with inhibitor, respectively. The inhibitions of LOX were reported as DI at 150 µg/mL of each SlEO. […] To calculate the IC50 values, data of DI (%) of seven different concentrations of each SlEO were plotted and fitted by non-linear regression according to Equation (2) using Sigma Plot software (systatsoftware.com) (Figure S6). The inhibitions of LOX and AChE by individual compounds were reported as IC50 or DI, depending on their inhibition capacities and solubilities.
(§5) (2) DI (%)= DImax [I]0/IC50+ [I]0

ABTS radical method = settings: individual compounds; maximum assay concentration 100 mM
Procedure: as §3

[4] = Reducing power (RdP) method; settings: individual compounds; maximum assay concentration 100 mM
Procedure: as §3

[5] = Oxygen radical absorbance capacity (ORAC) assay; settings: individual compounds, maximum assay concentration 100 mM
Procedure: as §3

[6] = Chelating power (ChP) method; settings: individual compounds; maximum assay concentration 100 mM
Procedure: as §3

AChE VI-S = molecular target: T2, AChE VI-S (Electrophorus electricus, UniProt O42275); assay: biochemical; settings: for concentration at which 15% inhibition of AChE reached: IC50 not calculable due to low water solubility
T2 construct: purchased Sigma-Aldrich
T2 sequence (O42275 24-633): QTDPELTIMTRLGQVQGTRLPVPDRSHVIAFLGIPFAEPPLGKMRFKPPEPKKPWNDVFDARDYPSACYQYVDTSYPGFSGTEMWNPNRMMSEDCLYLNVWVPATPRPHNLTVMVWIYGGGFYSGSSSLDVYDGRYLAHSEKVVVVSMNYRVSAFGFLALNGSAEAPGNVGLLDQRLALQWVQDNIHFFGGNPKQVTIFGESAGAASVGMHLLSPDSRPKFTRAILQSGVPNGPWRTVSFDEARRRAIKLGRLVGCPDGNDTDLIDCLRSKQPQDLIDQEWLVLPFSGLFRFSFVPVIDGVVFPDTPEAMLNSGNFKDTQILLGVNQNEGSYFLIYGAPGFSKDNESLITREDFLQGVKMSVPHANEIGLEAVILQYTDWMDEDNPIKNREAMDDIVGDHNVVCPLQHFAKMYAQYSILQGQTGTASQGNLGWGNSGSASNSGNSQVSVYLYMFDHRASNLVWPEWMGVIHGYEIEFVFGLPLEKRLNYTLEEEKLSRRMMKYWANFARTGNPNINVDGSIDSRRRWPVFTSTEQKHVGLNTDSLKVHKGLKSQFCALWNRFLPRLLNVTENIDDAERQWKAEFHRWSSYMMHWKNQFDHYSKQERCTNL
Procedure: AChE VI-S from Electrophorus electricus was purchased from Sigma-Aldrich. AChE inhibitory activity was measured in triplicate using a 96-well microplate reader at 25 °C, according to Ellman’s method. This enzyme hydrolyzes acetylthiocholine to acetate and thiocholine, which reacts with 5,5-dithio-bis-(2-nitrobenzoic acid) (DTNB) producing a coloured compound with absorbance at 412 nm. The reaction was measured for 10 min at 25 °C, using a 96-well microplate reader. SlEOs were diluted in 15% ethanol, to obtain a final concentration of 5% ethanol in the reaction medium.
as §4, §5

| SMILES | DPPH (DPPH radical method) | ABTS (ABTS radical method) | RdP [4] | ORAC [5] | ChP [6] | MIC ([1]; ATCC10231, 48 h, read-out: MIC) [µg/mL] | MFC ([1]; ATCC10231, read-out: MFC) [µg/mL] | MIC ([2]; ATCC6538, 24 h, read-out: MIC) [µg/mL] | MBC ([2]; ATCC6538, read-out: MBC) [µg/mL] | MIC ([3]; ATCC8739, 24 h, read-out: MIC) [µg/mL] | MBC ([3]; ATCC8739, read-out: MBC) [µg/mL] | IC50 (LOX) [mM] | further results |
| --- | --- | --- | --- | --- | --- | --- | --- | --- | --- | --- | --- | --- | --- |
| C=C(C)[C@H]1CC=C(C)CC1 [Limonene] | N/D (Activity lower than 0.05 units at a maximum assay concentration of 100 mM) | 0.6 ± 0.0 µmol TE/mmol X | N/D (Activity lower than 0.05 units at a maximum assay concentration of 100 mM) | 128.0 ± 10.8 µmol TE/mmol X | 5.9 ± 0.4 µmol EDTAE/mmol X |  |  |  |  |  |  |  | MFC [1]: 1000 µg/mL (≈ 7.34 mM); MIC ([1]; 48 h): 1000 µg/mL (≈ 7.34 mM); MBC [2]: 300 µg/mL (≈ 2.2 mM); MIC ([2]; 24 h): 300 µg/mL (≈ 2.2 mM); MBC [3]: 2000 µg/mL (≈ 14.7 mM); MIC ([3]; 24 h): 2000 µg/mL (≈ 14.7 mM); IC50LOX (LOX): 116.1 ± 3.3 µg/mL (≈ 0.852 mM) |
| C=CC(C)(O)CCC=C(C)C (centres unmarked) [Linalool] | N/D (Activity lower than 0.05 units at a maximum assay concentration of 100 mM) | 0.1 ± 0.0 µmol TE/mmol X | N/D (Activity lower than 0.05 units at a maximum assay concentration of 100 mM) | 341.9 ± 18.5 µmol TE/mmol X | 96.9 ± 5.8 µmol EDTAE/mmol X | 2300 (≈ 14.9 mM) | 2300 (≈ 14.9 mM) | 600 (≈ 3.89 mM) | 1100 (≈ 7.13 mM) | 1100 (≈ 7.13 mM) | 2300 (≈ 14.9 mM) | 3.35 |  |
| CC12CCC(CC1=O)C2(C)C (centres unmarked) [Camphor] | N/D (Activity lower than 0.05 units at a maximum assay concentration of 100 mM) | N/D (Activity lower than 0.05 units at a maximum assay concentration of 100 mM) | N/D (Activity lower than 0.05 units at a maximum assay concentration of 100 mM) | N/D (Activity lower than 0.05 units at a maximum assay concentration of 100 mM) | N/D (Activity lower than 0.05 units at a maximum assay concentration of 100 mM) | > 2300 | > 2300 | > 2300 | > 2300 | > 2300 | > 2300 | 2.74 | ORAC ([5]; listed as camphor): did not show any ORAC antioxidant activity |
| CC(=O)OC1CC2CCC1(C)C2(C)C (centres unmarked) [Bornyl acetate] | N/D (Activity lower than 0.05 units at a maximum assay concentration of 100 mM) | N/D (Activity lower than 0.05 units at a maximum assay concentration of 100 mM) | N/D (Activity lower than 0.05 units at a maximum assay concentration of 100 mM) | N/D (Activity lower than 0.05 units at a maximum assay concentration of 100 mM) | N/D (Activity lower than 0.05 units at a maximum assay concentration of 100 mM) | > 2900 | > 2900 | 2900 | > 2900 | > 2900 | > 2900 | 0.38 |  |
| CC1=CCC2CC1C2(C)C (stereo not drawn) [α-Pinene] | N/D (Activity lower than 0.05 units at a maximum assay concentration of 100 mM) | N/D (Activity lower than 0.05 units at a maximum assay concentration of 100 mM) | N/D (Activity lower than 0.05 units at a maximum assay concentration of 100 mM) | N/D (Activity lower than 0.05 units at a maximum assay concentration of 100 mM) | 16.6 ± 1.1 µmol EDTAE/mmol X | 500 (≈ 3.67 mM) | 500 (≈ 3.67 mM) | 2100 (≈ 15.4 mM) | > 2100 | 500 (≈ 3.67 mM) | 1000 (≈ 7.34 mM) |  | IC50 (AChE VI-S): 3.27 mM |
| CC1=CCC(O)(C(C)C)CC1 (centres unmarked) [Terpinen-4-ol] | N/D (Activity lower than 0.05 units at a maximum assay concentration of 100 mM) | 0.3 ± 0.0 µmol TE/mmol X | N/D (Activity lower than 0.05 units at a maximum assay concentration of 100 mM) | 356.0 ± 13.6 µmol TE/mmol X | 1.7 ± 0.1 µmol EDTAE/mmol X | > 2300 | > 2300 | 1100 (≈ 7.13 mM) | 2300 (≈ 14.9 mM) | 2300 (≈ 14.9 mM) | 2300 (≈ 14.9 mM) |  | DI (%) of LOX (LOX): 29.6 ± 1.0%; concentration at which 15% inhibition of AChE reached (AChE VI-S): 582.4 ± 38.1 µg/mL |
| CC1=CC[C@@H](C(C)(C)O)CC1 [α-Terpineol] | N/D (Activity lower than 0.05 units at a maximum assay concentration of 100 mM) | 0.2 ± 0.0 µmol TE/mmol X | N/D (Activity lower than 0.05 units at a maximum assay concentration of 100 mM) | 310.0 ± 16.6 µmol TE/mmol X | 4.9 ± 0.3 µmol EDTAE/mmol X | > 2400 | > 2400 | 600 (≈ 3.89 mM) | 1100 (≈ 7.13 mM) | 2400 (≈ 15.6 mM) | 2400 (≈ 15.6 mM) |  | DI (%) of LOX (LOX): 17.4 ± 0.2% |
| C=C1C2CCC(C2)C1(C)C (centres unmarked) [Camphene] | N/D (Activity lower than 0.05 units at a maximum assay concentration of 100 mM) | 0.1 ± 0.0 µmol TE/mmol X | 0.5 ± 0.0 µmol AAE/mmol X | N/D (Activity lower than 0.05 units at a maximum assay concentration of 100 mM) | 1.6 ± 0.1 µmol EDTAE/mmol X |  |  |  |  |  |  |  | MFC ([1]; ATCC10231): > 2000 µg/mL; MIC ([1]; ATCC10231, 48 h): > 2000 µg/mL; MBC ([2]; ATCC6538): > 2000 µg/mL; MIC ([2]; ATCC6538, 24 h): > 2000 µg/mL; MBC ([3]; ATCC8739): > 2000 µg/mL; MIC ([3]; ATCC8739, 24 h): > 2000 µg/mL; concentration at which 15% inhibition of AChE reached (AChE VI-S): 42.4 ± 3.7 µg/mL |
